Literature values, collected in patent US20070015719A1 (Elan Pharma International Limited, priority 2005, published 2007).

Conditions: in acidic solutions

For “6-o-methyl erythromycin A [clarithromycin]”, which stability is on record?
The stability was “stable”.
